The values below come from patent publication US20230398125A1, “TREATING HEPATITIS” (Albireo AB, priority 2022, published 2023).

Molecules are shown by their SMILES.

Broadly, the IC50 is the concentration at which inhibition is half-maximal. High values mean a need for much substance, low ones inhibition by little substance.

In the assay the target is T1, Human NTCP (Homo sapiens, UniProt Q14973).
T1 construct: expressed in transfected cells; peptide purchased from Pharmaron
T1 sequence (Q14973 1-349): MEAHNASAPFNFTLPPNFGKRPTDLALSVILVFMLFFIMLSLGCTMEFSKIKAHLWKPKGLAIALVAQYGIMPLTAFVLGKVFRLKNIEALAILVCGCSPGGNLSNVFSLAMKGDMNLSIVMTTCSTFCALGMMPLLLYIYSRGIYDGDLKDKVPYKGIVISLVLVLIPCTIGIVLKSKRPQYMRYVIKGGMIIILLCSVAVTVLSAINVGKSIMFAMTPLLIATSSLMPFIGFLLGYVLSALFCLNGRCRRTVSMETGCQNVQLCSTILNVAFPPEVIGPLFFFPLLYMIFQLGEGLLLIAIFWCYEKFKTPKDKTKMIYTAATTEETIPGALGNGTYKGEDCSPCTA
In words: [3H]preS1 peptide binding to NTCP-HEK293 cells. The method, then:
Human embryonic kidney (HEK293) cells were stably transfected with human NTCP, C-terminally tagged with the FLAG epitope (here referred to as NTCP-HEK293 cells). Cells were maintained at 37° C., 5% CO2 and 95% humidity in DMEM/F-12 medium (Thermo Fisher Scientific, Waltham, Mass., USA) supplemented with 10% fetal calf serum (Sigma-Aldrich, St. Louis, Mo., USA), 4 mM L-glutamine, and penicillin/streptomycin. HepG2 cells stably transfected with NTCP-FLAG (here referred to as NTCP-HepG2) were cultured under the same conditions in DMEM with all supplements listed above, except for L-glutamine. […]
Bile acid transport measurements were performed in the NTCP-HEK293 cells with tritium-labelled taurocholic acid (here referred to as [^3H]TC) (20 Ci/mmol, 0.09 mCi/mL, Perkin Elmer, Waltham, USA). […] Cell-associated radioactivity of [^3H]TC or [^3H]preS1 was quantified by liquid scintillation counting in a Packard Microplate Scintillation Counter TopCount NXT (Packard Instrument Company, Meriden, USA). Transport rates and [^3H]preS1 binding were determined in counts per minute (cpm). The mean of the 0% control was subtracted and the net [^3H]TC transport rates and net [^3H]preS1 binding rates, respectively, were expressed as % of control. IC50 values were calculated from quadruplicate determinations by GraphPad Prism 6 (GraphPad, San Diego, Calif., USA). […]

`CCCCC1CN(c2ccccc2)c2cc(SC)c(O/C=C(\F)C(=O)O)cc2S(=O)(=O)N1C` (stereo not shown) [Compound 1, (Z)-3-((3-butyl-2-methyl-7-(methylthio)-1,1-dioxido-5-phenyl-2,3,4,5-tetrahydro-1,2,5-benzothiadiazepin-8-yl)oxy)-2-fluoroacrylic acid] came in with an IC50 of 149 nM. This lies in the sub-micromolar range.
